Laboratory results taken from US12077503B2, “Substituted cyclic amides and their use as herbicides” (FMC CORPORATION, priority 2015, dated 2024).

How the values were obtained:
Assay type in all cases: in vivo
[1] = system: barnyardgrass (Echinochloa crus-galli); assay: Test G Pre-Emergence Protocol; conditions: Echinochloa crus-galli, pre-emergence, 312 h, evaluated after 13 days; for pest or weed control at 15.625 g/ha: 15.625 g ai/ha, read-out: Barnyard grass damage rating (100=total damage to plant; 0=no damage to plant); for pest or weed control at 62.5 g/ha: 62.5 g ai/ha, 100=total damage to plant, 0=no damage to plant, read-out: plant damage rating, Barnyardgrass; for pest or weed control at 250 g/ha: 250 g ai/ha, read-out: Barnyardgrass damage rating (100=total damage to plant; 0=no damage to plant)
Procedure, shortened: (§1)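 Seeds were sown in standard soil and kept one day in a glasshouse (24/16° C day/night, 14 h light, 65% humidity), then sprayed with compound in acetone/water (50:50) containing 0.5% Tween 20 at 15.625, 62.5 or 250 g/ha. Damage was scored after 13 days (0 = none, 100 = total).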

[2] = system: redroot pigweed (Amaranthus retroflexus); assay: Test G Pre-Emergence Protocol; conditions: Amaranthus retroflexus, pre-emergence, 312 h, evaluated after 13 days; for pest or weed control at 15.625 g/ha: 15.625 g ai/ha; for pest or weed control at 15.625 g/ha / pest or weed control at 250 g/ha: read-out: Pigweed, Redroot damage rating (100=total damage to plant; 0=no damage to plant); for pest or weed control at 62.5 g/ha: 62.5 g ai/ha, 100=total damage to plant, 0=no damage to plant, read-out: plant damage rating, Pigweed, Redroot; for pest or weed control at 250 g/ha: 250 g ai/ha
Procedure, shortened: as §1

[3] = system: velvetleaf (Abutilon theophrasti); assay: Test G Pre-Emergence Protocol; conditions: Abutilon theophrasti, pre-emergence, 312 h, evaluated after 13 days; for pest or weed control at 15.625 g/ha: 15.625 g ai/ha; for pest or weed control at 15.625 g/ha / pest or weed control at 250 g/ha: read-out: Velvetleaf damage rating (100=total damage to plant; 0=no damage to plant); for pest or weed control at 62.5 g/ha: 62.5 g ai/ha, 100=total damage to plant, 0=no damage to plant, read-out: plant damage rating, Velvetleaf; for pest or weed control at 250 g/ha: 250 g ai/ha
Procedure, shortened: as §1

[4] = system: giant foxtail (Setaria faberi); assay: Test G Pre-Emergence Protocol; conditions: Setaria faberi, pre-emergence, 312 h, evaluated after 13 days; for pest or weed control at 15.625 g/ha: 15.625 g ai/ha; for pest or weed control at 15.625 g/ha / pest or weed control at 250 g/ha: read-out: Foxtail, Giant damage rating (100=total damage to plant; 0=no damage to plant); for pest or weed control at 62.5 g/ha: 62.5 g ai/ha, 100=total damage to plant, 0=no damage to plant, read-out: plant damage rating, Foxtail, Giant; for pest or weed control at 250 g/ha: 250 g ai/ha
Procedure, shortened: as §1

[5] = system: ivy-leaved morning glory (Ipomoea hederacea); assay: Test G Pre-Emergence Protocol; conditions: Ipomoea, pre-emergence, 312 h, evaluated after 13 days; for pest or weed control at 15.625 g/ha: 15.625 g ai/ha, read-out: Morning-glory, Ivy-leaved damage rating (100=total damage to plant; 0=no damage to plant); for pest or weed control at 62.5 g/ha: 62.5 g ai/ha, 100=total damage to plant, 0=no damage to plant, read-out: plant damage rating, Morningglory, Ivy-leaved; for pest or weed control at 250 g/ha: 250 g ai/ha, read-out: Morningglory, Ivy-leaved damage rating (100=total damage to plant; 0=no damage to plant)
Procedure, shortened: as §1

[6] = system: corn (Zea mays); assay: Test G Pre-Emergence Protocol; conditions: Zea mays, pre-emergence, 312 h, evaluated after 13 days; for plant injury at 15.625 g/ha: 15.625 g ai/ha; for plant injury at 15.625 g/ha / plant injury at 250 g/ha: read-out: Corn damage rating (100=total damage to plant; 0=no damage to plant); for plant injury at 62.5 g/ha: 62.5 g ai/ha, 100=total damage to plant, 0=no damage to plant, read-out: plant damage rating, Corn; for plant injury at 250 g/ha: 250 g ai/ha
Procedure, shortened: as §1

[7] = system: barnyardgrass (Echinochloa crus-galli); assay: Test G Post-Emergence Protocol; conditions: Echinochloa crus-galli, post-emergence, 312 h; for pest or weed control at 15.625 g/ha: 15.625 g ai/ha, evaluated after 13 days (100=total damage to plant; 0=no damage to plant), read-out: Barnyardgrass damage rating; for pest or weed control at 62.5 g/ha: 62.5 g ai/ha, read-out: Barnyardgrass damage rating (100=total damage to plant; 0=no damage to plant); for pest or weed control at 62.5 g/ha / pest or weed control at 250 g/ha: evaluated after 13 days; for pest or weed control at 250 g/ha: 250 g ai/ha, read-out: damage to plant, Barnyardgrass (100=total damage to plant; 0=no damage to plant)
Procedure, shortened: (§2)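 Post-emergence herbicidal damage, scored visually 0–100 at 13 days. Application at 15.625, 62.5 or 250 g/ha onto 8-day-old plants grown under glasshouse control.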

[8] = system: redroot pigweed (Amaranthus retroflexus); assay: Test G Post-Emergence Protocol; conditions: Amaranthus retroflexus, post-emergence, 312 h; for pest or weed control at 15.625 g/ha: 15.625 g ai/ha, evaluated after 13 days (100=total damage to plant; 0=no damage to plant), read-out: Pigweed, Redroot damage rating; for pest or weed control at 62.5 g/ha: 62.5 g ai/ha, read-out: Pigweed, Redroot damage rating (100=total damage to plant; 0=no damage to plant); for pest or weed control at 62.5 g/ha / pest or weed control at 250 g/ha: evaluated after 13 days; for pest or weed control at 250 g/ha: 250 g ai/ha, read-out: damage to plant, Pigweed, Redroot (100=total damage to plant; 0=no damage to plant)
Procedure, shortened: as §2

[9] = system: velvetleaf (Abutilon theophrasti); assay: Test G Post-Emergence Protocol; conditions: Abutilon theophrasti, post-emergence, 312 h; for pest or weed control at 15.625 g/ha: 15.625 g ai/ha, evaluated after 13 days (100=total damage to plant; 0=no damage to plant), read-out: Velvetleaf damage rating; for pest or weed control at 62.5 g/ha: 62.5 g ai/ha, read-out: Velvetleaf damage rating (100=total damage to plant; 0=no damage to plant); for pest or weed control at 62.5 g/ha / pest or weed control at 250 g/ha: evaluated after 13 days; for pest or weed control at 250 g/ha: 250 g ai/ha, read-out: damage to plant, Velvetleaf (100=total damage to plant; 0=no damage to plant)
Procedure, shortened: as §2

[10] = system: giant foxtail (Setaria faberi); assay: Test G Post-Emergence Protocol; conditions: Setaria faberi, post-emergence, 312 h; for pest or weed control at 15.625 g/ha: 15.625 g ai/ha, evaluated after 13 days (100=total damage to plant; 0=no damage to plant), read-out: Foxtail, Giant damage rating; for pest or weed control at 62.5 g/ha: 62.5 g ai/ha, read-out: Foxtail, Giant damage rating (100=total damage to plant; 0=no damage to plant); for pest or weed control at 62.5 g/ha / pest or weed control at 250 g/ha: evaluated after 13 days; for pest or weed control at 250 g/ha: 250 g ai/ha, read-out: damage to plant, Foxtail, Giant (100=total damage to plant; 0=no damage to plant)
Procedure, shortened: as §2

[11] = system: ivy-leaved morning glory (Ipomoea hederacea); assay: Test G Post-Emergence Protocol; conditions: Ipomoea, post-emergence, 312 h; for pest or weed control at 15.625 g/ha: 15.625 g ai/ha, evaluated after 13 days (100=total damage to plant; 0=no damage to plant), read-out: Morningglory, Ivy-leaved damage rating; for pest or weed control at 62.5 g/ha: 62.5 g ai/ha, read-out: Morningglory, Ivy-leaved damage rating (100=total damage to plant; 0=no damage to plant); for pest or weed control at 62.5 g/ha / pest or weed control at 250 g/ha: evaluated after 13 days; for pest or weed control at 250 g/ha: 250 g ai/ha, read-out: damage to plant, Morningglory, Ivy-leaved (100=total damage to plant; 0=no damage to plant)
Procedure, shortened: as §2

[12] = system: corn (Zea mays); assay: Test G Post-Emergence Protocol; conditions: Zea mays, post-emergence, 312 h; for plant injury at 15.625 g/ha: 15.625 g ai/ha, evaluated after 13 days (100=total damage to plant; 0=no damage to plant), read-out: Corn damage rating; for plant injury at 62.5 g/ha: 62.5 g ai/ha, read-out: Corn damage rating (100=total damage to plant; 0=no damage to plant); for plant injury at 62.5 g/ha / plant injury at 250 g/ha: evaluated after 13 days; for plant injury at 250 g/ha: 250 g ai/ha, read-out: damage to plant, Corn (100=total damage to plant; 0=no damage to plant)
Procedure, shortened: as §2

Row | Structure (SMILES) | pest or weed control at 15.625 g/ha [1] [%] | pest or weed control at 62.5 g/ha [1] [%] | pest or weed control at 250 g/ha [1] [%] | pest or weed control at 15.625 g/ha [2] [%] | pest or weed control at 62.5 g/ha [2] [%] | pest or weed control at 250 g/ha [2] [%] | pest or weed control at 15.625 g/ha [3] [%] | pest or weed control at 62.5 g/ha [3] [%] | pest or weed control at 250 g/ha [3] [%] | pest or weed control at 15.625 g/ha [4] [%] | pest or weed control at 62.5 g/ha [4] [%] | pest or weed control at 250 g/ha [4] [%] | pest or weed control at 15.625 g/ha [5] [%] | pest or weed control at 62.5 g/ha [5] [%] | pest or weed control at 250 g/ha [5] [%] | plant injury at 15.625 g/ha [6] [%] | plant injury at 62.5 g/ha [6] [%] | plant injury at 250 g/ha [6] [%] | pest or weed control at 15.625 g/ha [7] [%] | pest or weed control at 62.5 g/ha [7] [%] | also measured
1 | Cc1ccc(NC(=O)[C@@H]2C(=O)N(C)C[C@H]2c2ccc(C(F)(F)F)cc2)nn1 (racemic) [Compound 1543] | 0 | 0 | 0 | 0 | 0 | 0 | 0 | 0 | 0 | 0 | 0 | 0 | 0 | 0 | 0 | 0 | 0 | 0 | 0 | 0 | pest or weed control at 250 g/ha [7]: 0%; pest or weed control at 15.625 g/ha [8]: 0%; pest or weed control at 62.5 g/ha [8]: 0%; pest or weed control at 250 g/ha [8]: 40%; pest or weed control at 15.625 g/ha [9]: 0%; pest or weed control at 62.5 g/ha [9]: 0%; pest or weed control at 250 g/ha [9]: 30%; pest or weed control at 15.625 g/ha [10]: 0%; pest or weed control at 62.5 g/ha [10]: 0%; pest or weed control at 250 g/ha [10]: 20%; pest or weed control at 15.625 g/ha [11]: 0%; pest or weed control at 62.5 g/ha [11]: 0%; pest or weed control at 250 g/ha [11]: 30%; plant injury at 15.625 g/ha [12]: 0%; plant injury at 62.5 g/ha [12]: 0%; plant injury at 250 g/ha [12]: 10%
2 | CN1C[C@@H](c2ccc(C(F)(F)F)cc2)[C@H](C(=O)Nc2nccnc2Cl)C1=O (racemic) [Compound 1552] | 0 | 0 | 0 | 0 | 0 | 0 | 0 | 0 | 0 | 0 | 0 | 0 | 0 | 0 | 0 | 0 | 0 | 0 | 0 | 0 | pest or weed control at 250 g/ha [7]: 0%; pest or weed control at 15.625 g/ha [8]: 0%; pest or weed control at 62.5 g/ha [8]: 0%; pest or weed control at 250 g/ha [8]: 0%; pest or weed control at 15.625 g/ha [9]: 0%; pest or weed control at 62.5 g/ha [9]: 0%; pest or weed control at 250 g/ha [9]: 0%; pest or weed control at 15.625 g/ha [10]: 0%; pest or weed control at 62.5 g/ha [10]: 0%; pest or weed control at 250 g/ha [10]: 0%; pest or weed control at 15.625 g/ha [11]: 0%; pest or weed control at 62.5 g/ha [11]: 0%; pest or weed control at 250 g/ha [11]: 0%; plant injury at 15.625 g/ha [12]: 10%; plant injury at 62.5 g/ha [12]: 10%; plant injury at 250 g/ha [12]: 10%
3 | CN1C[C@@H](c2ccc(Cl)nc2)[C@H](C(=O)Nc2cccc(F)c2F)C1=O (racemic) [Compound 1462] | 20 | 50 | 80 | 0 | 0 | 0 | 0 | 0 | 0 | 0 | 70 | 80 | 0 | 0 | 50 | 0 | 0 | 0 | 0 | 20 | pest or weed control at 250 g/ha [7]: 30%; pest or weed control at 15.625 g/ha [8]: 0%; pest or weed control at 62.5 g/ha [8]: 0%; pest or weed control at 250 g/ha [8]: 0%; pest or weed control at 15.625 g/ha [9]: 0%; pest or weed control at 62.5 g/ha [9]: 0%; pest or weed control at 250 g/ha [9]: 0%; pest or weed control at 15.625 g/ha [10]: 0%; pest or weed control at 62.5 g/ha [10]: 50%; pest or weed control at 250 g/ha [10]: 70%; pest or weed control at 15.625 g/ha [11]: 0%; pest or weed control at 62.5 g/ha [11]: 20%; pest or weed control at 250 g/ha [11]: 10%; plant injury at 15.625 g/ha [12]: 0%; plant injury at 62.5 g/ha [12]: 0%; plant injury at 250 g/ha [12]: 10%
